We go through 5 compounds from patent US8822517B2, “Arylosulfonamides for the treatment of CNS diseases” (Adamed SP. Z O.O., priority 2010, dated 2014).

Test [1] deals with adrenergic α1 receptor. The test can be described thus: Binding assay α1 (non-selective), [3H]prazosin, rat cerebral cortex. Conditions: percent inhibition of control specific binding; compounds tested at 1×10^−6 M. The gist of the method:
(§1)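 Compounds were screened at 1×10^−6 M, and bound radioactivity was measured by scintillation counting. Specific binding equals total binding minus nonspecific binding obtained with an excess of unlabelled ligand.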

Test [2] addresses T1, serotoninergic receptor 5-HT2C (Homo sapiens, UniProt P28335).
T1 construct: expressed in transfected cells; host or cells: HEK-293 cells
T1 sequence (P28335 33-458): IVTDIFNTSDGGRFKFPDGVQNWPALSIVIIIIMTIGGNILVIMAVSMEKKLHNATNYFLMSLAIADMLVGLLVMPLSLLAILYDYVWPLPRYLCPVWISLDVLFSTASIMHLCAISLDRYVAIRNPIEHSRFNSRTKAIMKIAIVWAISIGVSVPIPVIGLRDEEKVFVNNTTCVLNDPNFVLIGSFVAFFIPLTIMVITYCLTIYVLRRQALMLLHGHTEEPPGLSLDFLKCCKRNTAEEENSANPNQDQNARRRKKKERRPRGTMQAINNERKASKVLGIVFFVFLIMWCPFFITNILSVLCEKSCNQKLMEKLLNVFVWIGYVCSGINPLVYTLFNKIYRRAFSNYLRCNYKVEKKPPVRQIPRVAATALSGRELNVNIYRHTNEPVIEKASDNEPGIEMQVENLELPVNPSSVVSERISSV
The test can be described thus: Binding assay 5-HT2C (h), [3H]mesulergine, HEK-293 cells. The following applies: read-out: 5-HT2C [%]. A digest of the protocol: as §1

Test [3] concerns the target T2, serotonine transporter (SERT) receptor (Homo sapiens, UniProt P31645).
T2 construct: expressed in transfected cells; host or cells: CHO cells
Nature of the test: Binding assay SERT (h), [3H]imipramine, CHO cells. Conditions: read-out: SERT [%]. The gist of the method: as §1

For test [4], the target named is T3, serotoninergic 5-HT2A receptor (Homo sapiens, UniProt P28223). The test can be described thus: Cellular functional assay, serotoninergic 5-HT2A receptor (agonism/antagonism). The test is classed as cell-based. The following applies: for activation at 1 µM: read-out: 5-HT2A -ag [%]; for inhibition at 1 µM: read-out: 5-HT2A -antag [%]. A digest of the protocol: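 Human receptors tested in cell-based functional format for both agonist and antagonist modes. Single compound concentration of 1×10^−6M.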

The target in test [5] is T4, dopaminergic D3 receptor (Homo sapiens, UniProt P35462). Nature of the test: Cellular functional assay, dopaminergic D3 receptor (agonism/antagonism). Format: cell-based. The following applies: for inhibition at 1 µM: CHO, read-out: D3-antag. [%]; for activation at 1 µM: agonist effect, percent of control specific agonist response (300 nM dopamine for control), 1×10^−6 M, D3 (h), CHO cells, read-out: D3-ag [%]. As for the experimental part:
(§2) The compounds were tested at the concentration of 1×10^−6M.
(§3) In the Tables ag refers to agonism, and antag to antagonism).

Test [6] deals with serotoninergic 5-HT7 receptor (Homo sapiens, UniProt P34969). The test can be described thus: Binding assay 5-HT7 (h), [3H]LSD, CHO cells. Also on record: expressed in transfected cells; host or cells: CHO cells. Conditions: read-out: 5-HT7. A digest of the protocol: as §1
In test [7] the target is T4, dopaminergic D3 receptor. Nature of the test: Binding assay D3 (h), [3H]methyl-spiperone, CHO cells. Also on record: expressed in transfected cells; host or cells: CHO cells. Conditions: read-out: D3 [%]. The gist of the method: as §1
Test [8] addresses T5, serotoninergic 5-HT6 receptor (Homo sapiens, UniProt P50406). The test can be described thus: Binding assay 5-HT6 (h), [3H]LSD, CHO cells. Also on record: expressed in transfected cells; host or cells: CHO cells. The following applies: read-out: 5-HT6. A digest of the protocol:
as §1

Test [9] addresses T5, serotoninergic 5-HT6 receptor. Nature of the test: Cellular functional assay, serotoninergic 5-HT6 receptor (agonism/antagonism). The test is classed as cell-based. Conditions: for activation at 1 µM: agonist effect, percent of control specific agonist response, compounds tested at 1×10^−6M, read-out: 5-HT6-ag [%]; for inhibition at 1 µM: read-out: 5-HT6-antag. [%]. As for the experimental part: as §2, §3

Test [10] deals with T3, serotoninergic 5-HT2A receptor. The test can be described thus: Binding assay 5-HT2A (h), [3H]ketanserin, HEK-293 cells. Also on record: expressed in transfected cells; host or cells: HEK-293 cells. The following applies: read-out: 5-HT2A. The gist of the method:
as §1

The target in test [11] is histaminergic H1 receptor (Homo sapiens, UniProt P35367). The test can be described thus: Cellular functional assay, histaminergic H1 receptor (agonism/antagonism). Conditions: for activation at 1 µM: agonist effect, percent of control specific agonist response, compounds tested at 1×10^−6M, read-out: H1 -ag [%]; for inhibition at 1 µM: read-out: H1 -antag. [%]. Format: cell-based. As for the experimental part: as §2, §3

Test [12] deals with T6, serotoninergic 5-HT1A receptor (Homo sapiens, UniProt P08908).
T6 sequence (P08908 1-422): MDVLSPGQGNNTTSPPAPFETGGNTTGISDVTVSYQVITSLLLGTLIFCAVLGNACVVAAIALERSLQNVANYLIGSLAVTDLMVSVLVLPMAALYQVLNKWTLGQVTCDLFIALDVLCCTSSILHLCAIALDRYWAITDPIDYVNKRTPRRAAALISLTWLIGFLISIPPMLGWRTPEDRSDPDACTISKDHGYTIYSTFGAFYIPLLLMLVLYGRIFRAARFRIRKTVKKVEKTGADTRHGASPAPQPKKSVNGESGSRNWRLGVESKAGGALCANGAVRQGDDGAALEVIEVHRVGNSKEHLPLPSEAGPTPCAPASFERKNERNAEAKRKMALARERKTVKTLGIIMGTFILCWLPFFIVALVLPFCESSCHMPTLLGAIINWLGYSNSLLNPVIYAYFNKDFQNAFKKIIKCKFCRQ
The test can be described thus: Cellular functional assay, serotoninergic 5-HT1A receptor (agonism/antagonism). The test is classed as cell-based. The following applies: for inhibition at 1 µM: CHO, read-out: 5-HT1A-antag. [%]; for activation at 1 µM: agonist effect, percent of control specific agonist response (100 nM 8-OH-DPAT for control), 1×10^−6 M, 5-HT1A (h), CHO cells, read-out: 5-HT1A-ag [%]. As for the experimental part:
as §2, §3

SMILES strings stand for the structures.

T3 sequence (P28223 whole entry): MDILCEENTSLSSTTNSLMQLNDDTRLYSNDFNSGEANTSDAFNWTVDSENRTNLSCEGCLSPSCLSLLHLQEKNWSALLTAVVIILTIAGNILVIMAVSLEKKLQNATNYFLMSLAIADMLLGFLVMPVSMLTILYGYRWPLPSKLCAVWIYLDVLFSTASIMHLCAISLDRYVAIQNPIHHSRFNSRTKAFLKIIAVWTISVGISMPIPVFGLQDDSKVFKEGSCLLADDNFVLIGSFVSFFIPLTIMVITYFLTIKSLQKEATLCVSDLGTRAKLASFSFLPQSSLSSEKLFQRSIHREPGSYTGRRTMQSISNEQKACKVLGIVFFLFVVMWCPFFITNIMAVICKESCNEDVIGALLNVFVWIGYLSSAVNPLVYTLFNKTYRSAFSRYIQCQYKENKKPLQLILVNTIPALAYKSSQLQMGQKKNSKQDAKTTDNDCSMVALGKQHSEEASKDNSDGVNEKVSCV
T4 sequence (P35462 whole entry): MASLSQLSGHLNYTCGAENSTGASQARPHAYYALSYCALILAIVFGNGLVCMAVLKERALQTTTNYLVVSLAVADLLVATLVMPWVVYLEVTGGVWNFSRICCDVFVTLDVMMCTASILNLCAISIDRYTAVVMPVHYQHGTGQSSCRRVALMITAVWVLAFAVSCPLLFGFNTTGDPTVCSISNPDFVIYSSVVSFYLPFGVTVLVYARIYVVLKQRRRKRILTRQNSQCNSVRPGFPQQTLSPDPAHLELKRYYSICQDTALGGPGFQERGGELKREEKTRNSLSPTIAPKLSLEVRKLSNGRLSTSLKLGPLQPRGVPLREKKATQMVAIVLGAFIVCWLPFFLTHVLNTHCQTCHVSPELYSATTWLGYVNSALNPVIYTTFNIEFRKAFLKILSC
histaminergic H1 receptor, sequence (P35367 whole entry): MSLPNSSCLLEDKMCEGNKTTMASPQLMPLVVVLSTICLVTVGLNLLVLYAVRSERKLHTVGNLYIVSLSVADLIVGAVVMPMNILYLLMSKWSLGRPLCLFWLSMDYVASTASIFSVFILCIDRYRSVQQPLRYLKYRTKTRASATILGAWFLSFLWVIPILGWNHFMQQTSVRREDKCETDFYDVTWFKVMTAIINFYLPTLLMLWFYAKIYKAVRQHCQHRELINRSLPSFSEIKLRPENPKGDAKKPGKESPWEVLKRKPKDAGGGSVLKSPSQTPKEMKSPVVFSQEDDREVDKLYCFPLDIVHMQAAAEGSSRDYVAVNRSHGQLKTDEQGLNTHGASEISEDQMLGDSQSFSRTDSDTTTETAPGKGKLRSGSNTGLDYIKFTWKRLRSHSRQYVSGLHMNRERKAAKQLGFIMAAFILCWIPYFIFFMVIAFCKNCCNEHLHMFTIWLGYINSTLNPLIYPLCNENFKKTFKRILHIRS
serotoninergic 5-HT7 receptor, sequence (P34969 whole entry): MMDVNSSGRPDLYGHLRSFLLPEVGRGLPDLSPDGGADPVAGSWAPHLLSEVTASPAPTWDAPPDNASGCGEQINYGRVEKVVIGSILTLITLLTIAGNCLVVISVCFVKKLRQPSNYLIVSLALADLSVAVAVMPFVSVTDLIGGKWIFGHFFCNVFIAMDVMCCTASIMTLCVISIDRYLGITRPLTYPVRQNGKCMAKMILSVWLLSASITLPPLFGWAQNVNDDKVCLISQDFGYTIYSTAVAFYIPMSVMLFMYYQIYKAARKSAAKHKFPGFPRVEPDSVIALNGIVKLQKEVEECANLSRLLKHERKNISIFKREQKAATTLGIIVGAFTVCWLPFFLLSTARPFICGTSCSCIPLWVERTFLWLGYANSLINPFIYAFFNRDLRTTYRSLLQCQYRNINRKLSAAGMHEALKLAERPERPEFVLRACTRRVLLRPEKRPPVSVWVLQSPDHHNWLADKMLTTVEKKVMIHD
T5 sequence (P50406 whole entry): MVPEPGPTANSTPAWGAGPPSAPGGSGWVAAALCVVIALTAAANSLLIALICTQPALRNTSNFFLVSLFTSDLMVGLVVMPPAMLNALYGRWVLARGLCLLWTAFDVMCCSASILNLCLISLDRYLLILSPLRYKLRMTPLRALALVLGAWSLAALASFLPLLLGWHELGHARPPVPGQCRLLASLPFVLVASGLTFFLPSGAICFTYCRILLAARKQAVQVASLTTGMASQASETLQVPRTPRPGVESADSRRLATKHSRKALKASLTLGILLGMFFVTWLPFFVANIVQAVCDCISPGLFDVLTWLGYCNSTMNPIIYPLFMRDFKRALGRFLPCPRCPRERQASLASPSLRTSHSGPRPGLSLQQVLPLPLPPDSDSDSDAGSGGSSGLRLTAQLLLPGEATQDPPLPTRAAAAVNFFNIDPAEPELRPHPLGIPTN
T2 sequence (P31645 whole entry): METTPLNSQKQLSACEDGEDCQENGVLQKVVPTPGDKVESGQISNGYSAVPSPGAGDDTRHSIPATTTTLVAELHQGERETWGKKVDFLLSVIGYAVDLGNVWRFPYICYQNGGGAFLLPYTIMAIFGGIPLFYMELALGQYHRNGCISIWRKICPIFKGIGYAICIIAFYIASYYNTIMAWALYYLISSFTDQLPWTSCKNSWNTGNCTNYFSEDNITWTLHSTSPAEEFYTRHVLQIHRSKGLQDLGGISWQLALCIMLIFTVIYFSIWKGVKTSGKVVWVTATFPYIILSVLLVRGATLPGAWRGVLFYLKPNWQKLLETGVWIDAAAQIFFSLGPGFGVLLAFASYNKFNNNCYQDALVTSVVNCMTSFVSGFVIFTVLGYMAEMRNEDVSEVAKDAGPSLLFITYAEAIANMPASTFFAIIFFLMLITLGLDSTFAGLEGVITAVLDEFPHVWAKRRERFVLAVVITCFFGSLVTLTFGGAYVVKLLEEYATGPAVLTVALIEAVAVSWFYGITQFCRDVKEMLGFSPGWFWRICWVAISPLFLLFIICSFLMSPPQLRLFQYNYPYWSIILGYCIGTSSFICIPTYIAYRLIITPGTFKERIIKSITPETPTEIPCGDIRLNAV

`O=S(=O)(NCCCCN1CCC(c2noc3cc(F)ccc23)CC1)c1ccc2cc(Cl)ccc2c1` [Compound 97, 6-Chloro-N-[4-[4-(6-fluoro-1,2-benzoxazol-3-yl)piperidin-1-yl]butyl]naphthalene-2-sulphonamide]: the “α1 [%]” value in test [1] is reported as 98%. Further, the inhibition at 1 µM in test [2] was 89%; in [3] it was 61%; in test [4], 102%; in test [5], 87%; in test [6] it was 93%; in [7] it was 100%. Further, the inhibition at 1 µM came to 98% in [8]; 95% in test [9]; 100% in [10]; 57% in test [11]; 38% in test [12]. For the same compound, the activation at 1 µM is -3% in test [4]; -23% in test [5]; -2% in test [9]; 3% in test [11]; 13% in test [12].

Take `Cc1c(S(=O)(=O)NCCCN2CCC(c3noc4cc(F)ccc34)CC2)sc2ccc(F)cc12` [Compound 102, 5-Fluoro-N-[3-[4-(6-fluoro-1,2-benzoxazol-3-yl)piperidin-1-yl]propyl]-3-methylbenzothiophene-2-sulphonamide]: the “α1 [%]” value in test [1] came to 99%. Also, the inhibition at 1 µM in [2] is 76%; in test [3], 38%; in [4], 99%; in [5] it was 83%; in test [6], 97%; in test [7] it was 103%. Moreover, the inhibition at 1 µM in test [8] came out at 97%; in test [9], 82%; in [10], 101%; in test [11] it was 48%; in test [12], 35%. For the same compound, the activation at 1 µM is -2% in test [4]; 4% in test [5]; -1% in test [9]; 0% in [11]; 1% in test [12].

`O=S(=O)(NCCCCN1CCN(c2nsc3ccccc23)CC1)c1cc2ccccc2s1` [Compound 239, N-[4-[4-(1,2-Benzothiazol-3-yl)piperazin-1-yl]butyl]benzothiophene-2-sulphonamide]: in test [1], the “α1 [%]” value was determined as 99%. Also, the inhibition at 1 µM worked out at 88% in test [2]; 64% in test [3]; 94% in test [4]; 84% in test [5]; 98% in [6]; 102% in test [7]. In addition, the inhibition at 1 µM in test [8] is 96%; in test [9] it was 70%; in test [10], 101%; in [11], 54%; in test [12] it was 58%. Moreover, the activation at 1 µM in test [4] was -2%; in test [5] it was 6%; in test [9], 0%; in test [11], 0%; in [12], 7%.

With `O=S(=O)(NCCCCN1CCN(c2nsc3ccccc23)CC1)c1csc2ccccc12` [Compound 240, N-[4-[4-(1,2-Benzothiazol-3-yl)piperazin-1-yl]butyl]benzothiophene-3-sulphonamide], the “α1 [%]” value in [1] was 96%. Besides, the inhibition at 1 µM in test [2] turned out to be 78%; in test [3], 46%; in test [4], 93%; in test [5] it was 72%; in test [6], 97%; in test [7], 99%. The inhibition at 1 µM in test [8] was 98%; in [9] it was 71%; in test [10], 101%; in test [11], 69%; in test [12], 50%. For the same compound, the activation at 1 µM in test [4] was -3%; in test [5], 8%; in test [9], -2%; in test [11], 0%; in test [12], 9%.

`O=S(=O)(NCCCCN1CCN(c2nsc3ccccc23)CC1)c1cc2ccc(Cl)cc2s1` [Compound 241, N-[4-[4-(1,2-Benzothiazol-3-yl)piperazin-1-yl]butyl]-6-chlorobenzothiophene-2-sulphonamide]: in test [1], the “α1 [%]” value is 93%. Moreover, the inhibition at 1 µM in [2] was 96%; in test [3], 50%; in test [4] it was 99%; in test [5], 78%; in test [6] it was 99%; in test [7], 97%. In addition, the inhibition at 1 µM in test [8] amounted to 96%; in test [9] it was 69%; in [10] it was 101%; in test [11], 47%; in [12] it was 42%. For the same compound, the activation at 1 µM was -2% in test [4]; 7% in test [5]; 0% in [9]; 1% in test [11]; 5% in test [12].
